From PubChem BioAssay AID2060896 (Molecular Pharmacology Branch, DTP, NCI, 2025)

Tested on: 941728-121-R-J1-PDC complex spheroid viability
Assay: Anticancer human tumor 941728-121-R-J1-PDC patient-derived lung adenocarcinoma cell line growth inhibition [RAS]
Conditions: for IC50: curve of first compound; for viability, T/C: stronger effect = lower value
Procedure, shortened: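 Multi-cell-type spheroids: tumor cells plus HUVEC endothelial cells and mesenchymal stem cells. RAS-pathway inhibitors were combined with targeted agents, each dosed in half-log steps down from clinical Cmax, or from 10 microM when Cmax was unknown.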
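Further: spheroids exposed to compounds for 7 days before readout.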
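Wherever viability, T/C is given: 100% = DMSO vehicle control viability.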

For `C=CC(=O)Nc1cc(Nc2nccc(-c3cn(C)c4ccccc34)n2)c(OC)cc1N(C)CCN(C)C` + C=CC(=O)N1CCN(c2nc(OCC3CCCN3C)nc3c(F)c(-c4nc(N)cc(C)c4C(F)(F)F)c(Cl)cc23)C(C)C1, the IC50 (second compound 0.00316 µM) was < 3.16 nM, the IC50 (second compound 0.01 µM) was < 3.16 nM and the IC50 (second compound 0.0316 µM) was < 3.16 nM. The IC50 (second compound 0.1 µM) was < 3.16 nM, the IC50 (second compound 0.316 µM) was < 3.16 nM and the IC50 (second compound 1 µM) was < 3.16 nM. The viability, T/C (second compound 0.00316 µM, first compound 0.00316 µM) was 17.3%, the viability, T/C (second compound 0.00316 µM, first compound 0.01 µM) was 25.6% and the viability, T/C (second compound 0.00316 µM, first compound 0.0316 µM) was 17.1%. The viability, T/C (second compound 0.00316 µM, first compound 0.1 µM) was 21.1%, the viability, T/C (second compound 0.00316 µM, first compound 0.316 µM) was 17.6% and the viability, T/C (second compound 0.00316 µM, first compound 1 µM) was 16.7%. It also gave a viability, T/C (second compound 0.01 µM, first compound 0.00316 µM) of 20.4%, a viability, T/C (second compound 0.01 µM, first compound 0.01 µM) of 18.3% and a viability, T/C (second compound 0.01 µM, first compound 0.0316 µM) of 19.5%. It also gave a viability, T/C (second compound 0.01 µM, first compound 0.1 µM) of 18.2%, a viability, T/C (second compound 0.01 µM, first compound 0.316 µM) of 14.4% and a viability, T/C (second compound 0.01 µM, first compound 1 µM) of 17.3%. It also gave a viability, T/C (second compound 0.0316 µM, first compound 0.00316 µM) of 18.4%, a viability, T/C (second compound 0.0316 µM, first compound 0.01 µM) of 16.9% and a viability, T/C (second compound 0.0316 µM, first compound 0.0316 µM) of 17.2%. The viability, T/C (second compound 0.0316 µM, first compound 0.1 µM) was 17.9%, the viability, T/C (second compound 0.0316 µM, first compound 0.316 µM) was 17.5% and the viability, T/C (second compound 0.0316 µM, first compound 1 µM) was 15.8%. The viability, T/C (second compound 0.1 µM, first compound 0.00316 µM) was 21.1%, the viability, T/C (second compound 0.1 µM, first compound 0.01 µM) was 19.7% and the viability, T/C (second compound 0.1 µM, first compound 0.0316 µM) was 15.5%. The viability, T/C (second compound 0.1 µM, first compound 0.1 µM) was 15.8%, the viability, T/C (second compound 0.1 µM, first compound 0.316 µM) was 18.7% and the viability, T/C (second compound 0.1 µM, first compound 1 µM) was 16.4%. The viability, T/C (second compound 0.316 µM, first compound 0.00316 µM) was 19.8%, the viability, T/C (second compound 0.316 µM, first compound 0.01 µM) was 18.1% and the viability, T/C (second compound 0.316 µM, first compound 0.0316 µM) was 15.7%. It also gave a viability, T/C (second compound 0.316 µM, first compound 0.1 µM) of 17.1%, a viability, T/C (second compound 0.316 µM, first compound 0.316 µM) of 19.7% and a viability, T/C (second compound 0.316 µM, first compound 1 µM) of 15.6%. The viability, T/C (second compound 1 µM, first compound 0.00316 µM) was 20.6%, the viability, T/C (second compound 1 µM, first compound 0.01 µM) was 15.7% and the viability, T/C (second compound 1 µM, first compound 0.0316 µM) was 18.2%. For the same compound, the viability, T/C (second compound 1 µM, first compound 0.1 µM) was 17.3%, the viability, T/C (second compound 1 µM, first compound 0.316 µM) was 18.9% and the viability, T/C (second compound 1 µM, first compound 1 µM) was 16.2%.
